Measurements reported in patent publication US20080161419A1, “Prophylactic Antimigraine Agents” (priority 2004, published 2008).
pIC50, pKi: −log10 of the molar value.

Tests used:
[1] = system: migraine model of guinea pig; assay: Preventive effect in guinea pig migraine model (leaked protein from dural blood vessel caused by 5-HT); format: in vivo; details: for leakage of the protein: 10 mg/kg or 30 mg/kg of oral administration; for amount of leaked protein (fluorescence intensity per mg dura): 3 mg/kg, intraperitoneal administration, 5-HT i.v.
Description: In this test system, migraine preventive effect was evaluated by measuring this leaked protein in the presence of a compound to be tested, and this was carried out by partially modifying the method described in Rachel A. Spokes and Vicki C. Middlefell, European Journal of Pharmacology (1995) 281, 75-79.
Hartley male guinea pig (250-350 g) was anesthetized by peritoneal administration (i.p.) of urethane (1.5 g/kg). By applying simple cannulation to a saphena, 50 mg/kg of a fluorescent protein (FITC-BSA) was intravenously administered (i.v.) and 5 minutes thereafter, physiological saline or […] of 5-HT was intravenously administered. By carrying out perfusion with physiological saline 15 minutes thereafter, blood was washed out. […] By detaching the skull, dura mater was took out and incubated at 37° C. for 16 hours in an Eppendorf tube in the presence of physiological saline of pH 11. Centrifugation was carried out, and the supernatant was dispensed into a plate. Fluorescence intensity was measured using a fluorescence plate reader (excitation wavelength 485 nm, […] 530 nm). By measuring dura mater weight, fluorescence intensity per mg dural protein was calculated.
Values of the fluorescence intensity measured at the time of the administration of each compound and at the time of no administration are shown in FIG. 1 to FIG. 4. […] The control indicates fluorescence intensity at the time of no addition of 5-HT, namely the reference value.

human 5-HT2B receptor = target: T1, human 5-HT2B receptor (Homo sapiens, UniProt P41595); assay: Binding test of 5-HT2B receptor; details: [3H]Mesulergine, human 5-HT2B receptor expressing HEK293-EBNA cell membrane
T1 construct: expressed in transfected cells; host or cells: HEK293-EBNA
Description: HEK293-ENBA cell was used as the gene transferring cell.
Cultured HEK293-EBNA cells expressing human 5-HT2B receptor were washed with PBS(−). The cells were scraped in the presence of PBS(−), and the cells were recovered by centrifugation (1,000 rpm, 10 min, 4° C.). They were homogenized using Polytron (PTA 10-TS) in the presence of 5 mM Tris-HCl (pH 7.4) buffer and centrifuged (40,000×g, 10 min, 4° C.). They were suspended using a homogenizer in the presence of 50 mM Tris-HCl (pH 7.4) buffer. They were subjected to centrifugation (40,000×g, 10 min. 4° C.), suspended in 50 mM Tris-HCl (H 7.4) and stored at −80° C.
A total volume of 500 μl containing 50 mM Tris-HCl-4 mM CaCl2 (pH 7.4) buffer, the human 5-HT2B receptor expressing HEK293-EBNA cell membrane preparation and a radio ligand [^3H]Mesulergine (3.1 TBq/mmol) was incubated at 25° C. for 1 hour. The compound was dissolved in 100%1/DMSO and diluted to respective concentrations. Nonspecific binding was defined as the binding quantity in the presence of 1 μM ritanserin, and the result of subtracting the nonspecific binding quantity from the total binding quantity was defined as the specific binding quantity. […] The glass filter was soaked in 5 ml of a liquid scintillator (Aquasol-2) and the radioactivity was measured using a liquid scintillation counter. […]

human 5-HT7 receptor = target: T2, human 5-HT7 receptor (Homo sapiens, UniProt P34969); assay: Binding test of 5-HT7 receptor; details: [3H]5-HT, human 5-HT7 receptor expressing CHO cell membrane
T2 construct: expressed in transfected cells; host or cells: CHO
Description: Cultured CHO cells expressing human 5-HT7 receptor were washed with PBS(−). The cells were scraped in the presence of PBS(−), and the cells were recovered by centrifugation (1,000 rpm, 10 min, 4° C.). They were homogenized using Polytron (TA 10-TS) in the presence of 5 mM Tris-HCl (pH 7.4) buffer and centrifuged (40,000×g, 10 min, 4° C.). They were suspended using a homogenizer in the presence of 50 mM Tris-HCl (pH 7.4) buffer. They were subjected to centrifugation (40,000×g, 10 min, 4° C.), suspended in 50 mM Tris-HCl (pH 7.4) and stored at −80° C.
A total volume of 500 μl containing 50 mM Tris-HCl-4 mM CaCl2 (pH 7.4) buffer, the human 5-HT7 receptor expressing CHO cell membrane preparation and a radio ligand [^3H]5-HT (3.40 TBq/mmol) was incubated at 25° C. for 1 hour. The compound was dissolved in 100% DMSO and diluted to respective concentrations. Nonspecific binding was defined as the binding quantity in the presence of 10 μM metergoline, and the result of subtracting the nonspecific binding quantity from the total binding quantity was defined as the specific binding quantity. This was mixed with 4 ml of 50 mM Tris-HCl buffer (pH 7.4) and filtered under a reduced pressure using a GF/B glass filter, and the filter was washed (4 ml×3) with the same buffer. The glass filter was soaked in 5 ml of a liquid scintillator (Aquasol-2) and the radioactivity was measured using a liquid scintillation counter. Concentration of the compound which inhibits 50% of the receptor binding, IC50 value, was obtained by nonlinear regression analysis using SAS (ver. 6.11), and the Ki value which represents its affinity for the receptor was calculated using the formula of Cheng & Prussoff; Ki=IC50/(1+[L]/[Kd]) ([L]: ligand concentration, [Kd]: dissociation constant).

5-HT1A receptor = target: T3, 5-HT1A receptor (Homo sapiens, UniProt P08908); assay: Affinity for other receptors: 5-HT1A; format: binding
T3 sequence (P08908 1-422): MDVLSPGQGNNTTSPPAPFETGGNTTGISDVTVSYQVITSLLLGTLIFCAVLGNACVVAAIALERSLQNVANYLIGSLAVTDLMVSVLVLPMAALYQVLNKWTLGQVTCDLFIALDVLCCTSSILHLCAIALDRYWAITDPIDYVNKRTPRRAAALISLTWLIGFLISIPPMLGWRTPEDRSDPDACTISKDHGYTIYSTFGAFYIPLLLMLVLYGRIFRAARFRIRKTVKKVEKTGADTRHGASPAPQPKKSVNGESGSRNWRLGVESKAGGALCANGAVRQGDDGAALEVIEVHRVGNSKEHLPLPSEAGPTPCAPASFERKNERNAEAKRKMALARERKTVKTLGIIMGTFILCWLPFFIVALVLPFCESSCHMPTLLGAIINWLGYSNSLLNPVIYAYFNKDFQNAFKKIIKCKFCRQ
Description: (§1) Affinity of the compound of Preparation 3 for 5-HT1A, 5-HT1B, 5-HT2A, 5-HT2C, 5-HT3, 5-HT4, 5-HT6, α1, M1 and D2 receptors was verified using conventionally known techniques (Journal of Neurochemistry (1986) 47, 529-540; Molecular Pharmacology (1982) 21, 301-314; European Journal of Pharmacology (1985) 106, 539-546; Journal of Pharmacology Experimental Therapy (1992) 263, 1127-1132; British Journal of Pharmacology (1993) 109, 618-624; Molecular Pharmacology (1993) 43, 320-327; Molecular Pharmacology (1989) 35, 324-330; Cellular Molecular Neurobiology (1988) 8, 181-191; European Journal of Pharmacology (1988) 173, 177-182).

5-HT1B receptor = 5-HT1B receptor (Homo sapiens, UniProt P28222); assay: Affinity for other receptors: 5-HT1B; format: binding
Description: as §1

5-HT2A receptor = 5-HT2A receptor (Homo sapiens, UniProt P28223); assay: Affinity for other receptors: 5-HT2A; format: binding
Description: as §1

5-HT2C receptor = target: T4, 5-HT2C receptor (Homo sapiens, UniProt P28335); assay: Affinity for other receptors: 5-HT2C; format: binding
T4 sequence (P28335 33-458): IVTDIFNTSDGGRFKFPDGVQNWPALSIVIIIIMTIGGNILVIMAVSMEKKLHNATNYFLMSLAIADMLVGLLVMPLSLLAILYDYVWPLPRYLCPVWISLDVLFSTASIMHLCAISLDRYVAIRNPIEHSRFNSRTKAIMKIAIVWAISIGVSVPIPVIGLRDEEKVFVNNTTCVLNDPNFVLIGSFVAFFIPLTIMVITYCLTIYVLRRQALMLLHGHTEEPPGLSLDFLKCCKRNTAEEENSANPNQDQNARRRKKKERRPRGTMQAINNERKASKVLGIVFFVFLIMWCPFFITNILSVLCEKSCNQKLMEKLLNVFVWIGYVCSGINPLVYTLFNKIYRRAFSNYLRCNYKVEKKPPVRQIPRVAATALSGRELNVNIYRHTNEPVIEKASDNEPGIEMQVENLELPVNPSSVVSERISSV
Description: as §1

5-HT3 receptor = target: T5, 5-HT3 receptor (Homo sapiens, UniProt P46098); assay: Affinity for other receptors: 5-HT3; format: binding
T5 sequence (P46098 24-478): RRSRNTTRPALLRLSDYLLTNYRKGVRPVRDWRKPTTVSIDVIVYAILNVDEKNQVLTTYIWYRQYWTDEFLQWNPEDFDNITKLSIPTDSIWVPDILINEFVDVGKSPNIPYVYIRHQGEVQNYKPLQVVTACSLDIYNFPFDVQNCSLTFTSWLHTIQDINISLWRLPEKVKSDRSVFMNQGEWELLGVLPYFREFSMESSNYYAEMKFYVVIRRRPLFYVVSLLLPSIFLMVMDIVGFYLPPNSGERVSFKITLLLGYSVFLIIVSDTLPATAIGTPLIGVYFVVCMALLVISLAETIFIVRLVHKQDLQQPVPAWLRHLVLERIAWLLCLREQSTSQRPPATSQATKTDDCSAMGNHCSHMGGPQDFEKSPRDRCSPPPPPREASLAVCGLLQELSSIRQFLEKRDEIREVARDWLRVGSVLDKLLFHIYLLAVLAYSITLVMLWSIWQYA
Description: as §1

5-HT4 receptor = 5-HT4 receptor (Homo sapiens, UniProt Q13639); assay: Affinity for other receptors: 5-HT4; format: binding
Description: as §1

5-HT6 receptor = 5-HT6 receptor (Homo sapiens, UniProt P50406); assay: Affinity for other receptors: 5-HT6; format: binding
Description: as §1

α1 receptor = assay: Affinity for other receptors: α1; format: binding
Description: as §1

M1 receptor = target: T6, M1 receptor (Homo sapiens, UniProt P11229); assay: Affinity for other receptors: M1; format: binding
T6 sequence (P11229 1-460): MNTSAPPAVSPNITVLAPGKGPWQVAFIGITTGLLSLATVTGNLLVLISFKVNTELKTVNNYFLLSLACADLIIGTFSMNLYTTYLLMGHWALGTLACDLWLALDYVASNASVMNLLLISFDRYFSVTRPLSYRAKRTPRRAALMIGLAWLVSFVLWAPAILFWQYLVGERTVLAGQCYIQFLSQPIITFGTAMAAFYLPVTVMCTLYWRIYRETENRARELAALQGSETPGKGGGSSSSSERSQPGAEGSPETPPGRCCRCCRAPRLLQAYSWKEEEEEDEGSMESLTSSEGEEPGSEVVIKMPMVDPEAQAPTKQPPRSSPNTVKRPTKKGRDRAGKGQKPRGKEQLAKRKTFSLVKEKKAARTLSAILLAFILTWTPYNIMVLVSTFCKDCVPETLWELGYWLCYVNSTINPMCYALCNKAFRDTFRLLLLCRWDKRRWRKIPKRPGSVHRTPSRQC
Description: as §1

D2 receptor = D2 receptor (Homo sapiens, UniProt P14416); assay: Affinity for other receptors: D2; format: binding
Description: as §1

5-HT2B receptor = details: against 5-HT1A, 5-HT1B, 5-HT2A, 5-HT2C, 5-HT3, 5-HT6, 5-HT7, α1, M1 and D2 receptors; cited from earlier work

T2 sequence (P34969 whole entry): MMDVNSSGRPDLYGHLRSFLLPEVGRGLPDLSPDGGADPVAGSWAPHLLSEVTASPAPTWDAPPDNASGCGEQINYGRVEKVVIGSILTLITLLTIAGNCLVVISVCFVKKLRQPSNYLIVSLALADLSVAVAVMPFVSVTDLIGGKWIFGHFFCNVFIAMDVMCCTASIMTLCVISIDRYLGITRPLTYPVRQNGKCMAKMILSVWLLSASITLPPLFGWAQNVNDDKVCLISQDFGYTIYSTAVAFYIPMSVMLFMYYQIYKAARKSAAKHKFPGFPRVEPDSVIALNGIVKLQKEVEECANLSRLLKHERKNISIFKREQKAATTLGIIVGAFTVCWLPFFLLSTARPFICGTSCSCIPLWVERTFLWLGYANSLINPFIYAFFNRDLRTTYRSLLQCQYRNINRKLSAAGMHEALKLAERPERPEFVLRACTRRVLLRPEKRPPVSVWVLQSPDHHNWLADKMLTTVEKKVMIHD
5-HT2A receptor, sequence (P28223 whole entry): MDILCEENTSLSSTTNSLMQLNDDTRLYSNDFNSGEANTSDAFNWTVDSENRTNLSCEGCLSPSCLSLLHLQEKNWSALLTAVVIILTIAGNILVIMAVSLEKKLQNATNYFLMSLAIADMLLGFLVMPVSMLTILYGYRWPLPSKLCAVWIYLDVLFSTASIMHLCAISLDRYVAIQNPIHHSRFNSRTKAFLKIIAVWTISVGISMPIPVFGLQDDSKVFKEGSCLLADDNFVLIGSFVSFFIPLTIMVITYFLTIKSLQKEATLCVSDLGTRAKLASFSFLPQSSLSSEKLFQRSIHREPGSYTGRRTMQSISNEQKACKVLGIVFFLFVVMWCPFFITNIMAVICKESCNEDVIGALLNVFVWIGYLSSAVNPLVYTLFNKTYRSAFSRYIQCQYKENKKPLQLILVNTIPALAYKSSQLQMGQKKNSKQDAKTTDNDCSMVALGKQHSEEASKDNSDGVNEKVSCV
5-HT1B receptor, sequence (P28222 whole entry): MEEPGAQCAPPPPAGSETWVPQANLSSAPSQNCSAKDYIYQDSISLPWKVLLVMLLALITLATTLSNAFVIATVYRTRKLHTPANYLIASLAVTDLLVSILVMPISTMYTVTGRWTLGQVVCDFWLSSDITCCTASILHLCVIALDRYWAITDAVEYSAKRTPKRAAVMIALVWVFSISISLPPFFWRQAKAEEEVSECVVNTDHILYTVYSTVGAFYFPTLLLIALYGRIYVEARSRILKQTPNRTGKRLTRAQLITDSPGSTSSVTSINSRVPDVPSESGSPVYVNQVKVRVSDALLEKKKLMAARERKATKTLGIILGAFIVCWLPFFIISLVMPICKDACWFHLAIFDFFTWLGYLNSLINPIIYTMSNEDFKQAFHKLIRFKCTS
T1 sequence (P41595 whole entry): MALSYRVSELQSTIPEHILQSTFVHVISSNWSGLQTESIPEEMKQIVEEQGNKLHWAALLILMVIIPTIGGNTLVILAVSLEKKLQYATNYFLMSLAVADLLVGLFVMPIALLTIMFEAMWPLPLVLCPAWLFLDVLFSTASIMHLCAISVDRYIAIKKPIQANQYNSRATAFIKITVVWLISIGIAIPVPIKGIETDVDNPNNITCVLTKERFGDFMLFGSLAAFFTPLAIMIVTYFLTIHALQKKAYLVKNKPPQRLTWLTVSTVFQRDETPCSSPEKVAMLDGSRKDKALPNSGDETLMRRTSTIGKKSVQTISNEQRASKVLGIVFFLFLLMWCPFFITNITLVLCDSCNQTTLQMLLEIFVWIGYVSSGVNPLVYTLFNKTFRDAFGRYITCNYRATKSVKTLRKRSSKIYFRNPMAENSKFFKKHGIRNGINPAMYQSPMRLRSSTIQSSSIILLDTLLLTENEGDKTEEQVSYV
5-HT4 receptor, sequence (Q13639 whole entry): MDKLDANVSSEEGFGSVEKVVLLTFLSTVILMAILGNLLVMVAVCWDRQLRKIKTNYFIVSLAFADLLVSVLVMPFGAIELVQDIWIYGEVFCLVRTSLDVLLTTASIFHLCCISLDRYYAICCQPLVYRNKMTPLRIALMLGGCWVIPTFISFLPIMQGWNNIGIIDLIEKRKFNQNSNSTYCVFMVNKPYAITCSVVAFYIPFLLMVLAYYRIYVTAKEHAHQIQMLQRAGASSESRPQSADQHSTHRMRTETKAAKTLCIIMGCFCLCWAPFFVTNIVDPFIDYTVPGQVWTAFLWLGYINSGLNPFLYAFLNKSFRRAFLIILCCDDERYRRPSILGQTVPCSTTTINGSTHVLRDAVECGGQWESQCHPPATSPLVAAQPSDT
D2 receptor, sequence (P14416 whole entry): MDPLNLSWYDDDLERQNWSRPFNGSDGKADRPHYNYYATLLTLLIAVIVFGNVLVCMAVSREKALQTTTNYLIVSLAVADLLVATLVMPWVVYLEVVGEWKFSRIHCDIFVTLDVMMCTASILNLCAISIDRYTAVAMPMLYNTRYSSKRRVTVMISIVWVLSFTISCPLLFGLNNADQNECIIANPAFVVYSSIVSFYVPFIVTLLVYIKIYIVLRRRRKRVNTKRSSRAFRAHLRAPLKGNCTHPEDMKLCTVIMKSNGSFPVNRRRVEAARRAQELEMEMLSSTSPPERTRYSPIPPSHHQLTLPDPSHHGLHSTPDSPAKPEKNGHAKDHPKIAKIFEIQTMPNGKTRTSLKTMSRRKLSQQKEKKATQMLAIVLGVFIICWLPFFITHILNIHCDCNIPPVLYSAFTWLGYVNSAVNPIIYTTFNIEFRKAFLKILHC
5-HT6 receptor, sequence (P50406 whole entry): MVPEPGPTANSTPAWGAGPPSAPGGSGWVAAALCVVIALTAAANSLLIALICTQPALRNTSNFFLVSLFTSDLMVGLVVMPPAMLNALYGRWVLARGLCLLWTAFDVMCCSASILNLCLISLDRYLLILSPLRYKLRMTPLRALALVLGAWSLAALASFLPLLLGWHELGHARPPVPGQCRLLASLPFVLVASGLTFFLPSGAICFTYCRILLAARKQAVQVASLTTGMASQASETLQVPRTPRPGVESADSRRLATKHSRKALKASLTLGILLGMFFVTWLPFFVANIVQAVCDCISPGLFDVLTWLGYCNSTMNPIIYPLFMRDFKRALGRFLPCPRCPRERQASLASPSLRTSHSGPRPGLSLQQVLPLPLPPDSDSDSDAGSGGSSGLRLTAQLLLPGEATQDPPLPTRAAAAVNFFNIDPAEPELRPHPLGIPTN

## Cl.NC(N)=NC(=O)c1ccc2c(c1)C1(CCCO1)c1ccccc1-2 (racemic) [Preparation 60]
[1]
  leakage of the protein: almost completely suppressed leakage of the protein

## COC1(C)c2ccccc2-c2ccc(C(=O)N=C(N)N)cc21.Cl (racemic) [Preparation 71]
[1]
  leakage of the protein: almost completely suppressed leakage of the protein

## CCC1(OC)c2ccccc2-c2ccc(C(=O)N=C(N)N)cc21.Cl (racemic) [Preparation 72]
[1]
  leakage of the protein: almost completely suppressed leakage of the protein

## COC1(C)c2cc(C(=O)N=C(N)N)ccc2-c2c(F)cccc21.Cl (racemic) [Preparation 87]
[1]
  leakage of the protein: almost completely suppressed leakage of the protein

## Cl.NC(N)=NC(=O)c1ccc2c(c1)C1(CCCO1)c1ccccc1-2 (single isomer, unassigned) [Preparation 60a]
[1]
  leakage of the protein: almost completely suppressed leakage of the protein

## Cl.NC(N)=NC(=O)c1ccc2c(c1)C1(CCCO1)c1ccccc1-2 (single isomer, unassigned) [Preparation 60b]
[1]
  leakage of the protein: almost completely suppressed leakage of the protein

## CC1(O)c2cc(C(=O)N=C(N)N)ccc2-c2c(F)cccc21.Cl (single isomer, unassigned) [Preparation 78b]
[1]
  leakage of the protein: almost completely suppressed leakage of the protein

## Cl.NC(N)=NC(=O)c1ccc2c(c1)C(O)c1ccccc1-2 (centres unmarked) [Preparation 3, N-(diaminomethylene)-9-hydroxy-9H-fluorene-2-carboxamide hydrochloride]
Human 5-HT2B receptor
  pKi: 8.74
Human 5-HT7 receptor
  pKi: 7.75
5-HT1A receptor
  pIC50: ≤ 6.00
5-HT1B receptor
  pIC50: ≤ 6.00
5-HT2A receptor
  pIC50: ≤ 6.00
5-HT2C receptor
  pIC50: ≤ 6.00
5-HT3 receptor
  pIC50: ≤ 6.00
5-HT4 receptor
  pIC50: ≤ 6.00
5-HT6 receptor
  pIC50: ≤ 6.00
α1 receptor
  pIC50: ≤ 6.00
M1 receptor
  pIC50: ≤ 6.00
D2 receptor
  pIC50: ≤ 6.00
[1]
  amount of leaked protein (fluorescence intensity per mg dura): almost completely suppressed the amount of leaked protein

## NC(N)=NC(=O)c1ccc2c(c1)C(Cl)c1ccccc1-2 (centres unmarked) [Preparation 4, 9-chloro-N-(diaminomethylene)-9H-fluorene-2-carboxamide]
Human 5-HT7 receptor
  pKi: 6.51 to 9.40

## NC(N)=NC(=O)c1ccc2c(c1)C(=NO)c1c(CO)cccc1-2 [Preparation 7, (9EZ)-N-(diaminomethylene)-9-hydroxyimino-8-hydroxymethyl-9H-fluorene-2-carboxamide]
Human 5-HT7 receptor
  pKi: 6.51 to 9.40

## CC(C)c1cc(-c2ccc(F)c3ccccc23)nc(N)n1 [RS-127445, 2-amino-4-(4-fluoronaphth-1-yl)-6-isopropylpyrimidine, reference compound]
[1]
  amount of leaked protein (fluorescence intensity per mg dura): showed an effect to reduce amount of the leaked protein
[1]; dose increased from 3 mg/kg to 10 mg/kg, intraperitoneal
  amount of leaked protein versus reference value: did Dot reduced to the reference value
[1]; intraperitoneal
  minimum amount showing maximum drug effect in this model: 3 mg/kg
5-HT2B receptor
  5-HT2B receptor selectivity: 1000 times

## CC1CCN(CC[C@H]2CCCN2S(=O)(=O)c2cccc(O)c2)CC1 [SB-269970, (R)-3-(2-(2-(4-methylpiperidin-1-yl)ethyl)pyrrolidine-1-sulfonyl)phenol, reference compound]
[1]; dose increased from 3 mg/kg to 30 mg/kg, intraperitoneal
  amount of leaked protein versus reference value: did not reduced the amount of leaked protein to the reference value
[1]; from 10 mg/kg, intraperitoneal
  amount of leaked protein: showed the effect
[1]; intraperitoneal
  minimum amount showing maximum drug effect in this model: 10 mg/kg
